The values below come from ChEMBL document CHEMBL1201862, “PubChem BioAssay data set” (2004).

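96-well plates; 48 h exposure; 5 concentrations. Endpoints by linear interpolation between flanking doses. Not reached: highest tested concentration assigned. At the GI50, growth is halved.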 Active and inactive are the calls of the source. No stated cut-off is given here; in the data, active = GI50 up to about 1.1 µM and inactive = higher. Where only a bound is given, the exact number is not on record here.

Some test systems named below: 786-0; HCC 2998; HCT-15; HOP-92; HT-29; Hs-578T; IGROV-1; M14; MDA-N; NCI-H522; OVCAR-3; PC-3; SF-295; SK-MEL-2; SN12C; T47D; TK-10; UACC-257; UO-31; UACC-62.
Assay in all cases: DTP human tumour cell line panel, 48 h

In the case of `O=C1c2cc3c(cc2CC12Cc1cc4c(cc1C2)CCC4)CCC3`, the GI50 with 786-0 was > 100 µM (inactive); in the assay on HCC 2998, > 100 µM (inactive); in the assay on HCT-15, above 100 µM; with HOP-92, > 100 µM (inactive); in the assay on HT-29, 93.8 µM (inactive); in the assay with Hs-578T it was > 100 µM (inactive). For the same molecule, the GI50 with IGROV-1, with M14, in the assay on MDA-N, in the assay with NCI-H522, with OVCAR-3 and in the assay with PC-3 was > 100 µM (inactive) in each case. Moreover, the GI50 in the assay on SF-295, with SK-MEL-2, with SN12C, with T47D, with TK-10 and in the assay with UACC-257 was > 100 µM (inactive) in each case. Further, in the assay with UO-31, the GI50 was > 100 µM (inactive).
For `Cc1cc2nc3ccccc3n2c2nc(N)ccc12`, the GI50 in the assay on 786-0 is 16.7 µM (inactive); with HCC 2998, 39.6 µM (inactive); in the assay with HCT-15, 12 µM; in the assay on HOP-92, 16.6 µM (inactive); in the assay on HT-29, 34.3 µM (inactive); with Hs-578T it was 35.3 µM (inactive). In addition, the GI50 in the assay with IGROV-1 was 28.1 µM (inactive); in the assay on M14 it was 48 µM (inactive); in the assay on MDA-N, 49.4 µM (inactive); in the assay with NCI-H522, 31.6 µM (inactive); in the assay on OVCAR-3 it was 63.7 µM (inactive); with PC-3 it was 40.4 µM (inactive). The GI50 in the assay with SF-295 was 23.3 µM (inactive); in the assay with SK-MEL-2 it was 65.6 µM (inactive); with SN12C, 51.2 µM (inactive); in the assay with T47D it was 38.2 µM (inactive); in the assay on TK-10, 55.8 µM (inactive); in the assay on UACC-257, > 100 µM (inactive). The GI50 in the assay on UACC-62 was 39.3 µM (inactive); in the assay on UO-31, 16.3 µM (inactive).
Turning to `O=C1CCCSC(=O)N1Cc1ccccc1`, the GI50 is > 100 µM (inactive) with 786-0; > 100 µM (inactive) with HCC 2998; above 100 µM in the assay with HCT-15; > 100 µM (inactive) with HOP-92; > 100 µM (inactive) in the assay on HT-29; > 100 µM (inactive) with Hs-578T. The GI50 with IGROV-1, in the assay on M14, in the assay on MDA-N, in the assay with NCI-H522, in the assay on OVCAR-3 and in the assay with PC-3 was > 100 µM (inactive) throughout. Further, the GI50 in the assay on SF-295, in the assay with SK-MEL-2, in the assay on SN12C, in the assay with T47D, with TK-10 and in the assay with UACC-257 was > 100 µM (inactive) in each case. For the same molecule, in the assay on UACC-62, the GI50 was > 100 µM (inactive).
`Cc1cc2c(cc1C(=O)CCC(=O)O)CC1(C2)Cc2cc(C)c(C(=O)CCC(=O)O)cc2C1`: the GI50 with 786-0 was > 100 µM (inactive); with HCC 2998, > 100 µM (inactive); in the assay on HCT-15, above 100 µM; in the assay with HOP-92 it was > 100 µM (inactive); with HT-29 it was > 100 µM (inactive); in the assay on Hs-578T it was > 100 µM (inactive). For the same molecule, the GI50 in the assay with IGROV-1, in the assay with M14, with MDA-N, with NCI-H522, with OVCAR-3 and with PC-3 was > 100 µM (inactive) in each case. Also, the GI50 with SF-295, in the assay on SK-MEL-2, with SN12C, in the assay on T47D, with TK-10 and in the assay with UACC-257 was > 100 µM (inactive) each time. The GI50 in the assay with UO-31 was > 100 µM (inactive).
As for `COc1cc(C=O)cc(/C=N/c2ccc(Br)cc2)c1O`, the GI50 in the assay on HCC 2998 was 14.1 µM (inactive); in the assay with HCT-15, 2.15 µM; in the assay with HOP-92, 3.53 µM (inactive); in the assay on HT-29, 17.7 µM (inactive); with Hs-578T, 1.8 µM (inactive); with IGROV-1, 40.3 µM (inactive). Also, the GI50 with M14 is 1.66 µM (inactive); in the assay on MDA-N, 3.72 µM (inactive); in the assay with NCI-H522 it was 0.995 µM (active); in the assay with OVCAR-3, 13.5 µM (inactive); with PC-3 it was 2.81 µM (inactive); in the assay on SF-295, 2.52 µM (inactive). Further, the GI50 with SK-MEL-2 was 2.78 µM (inactive); with SN12C, 4.13 µM (inactive); in the assay on T47D, 1.15 µM (inactive); in the assay on TK-10, 32.4 µM (inactive); in the assay with UACC-257, 5.75 µM (inactive); in the assay on UACC-62 it was 0.347 µM (active). Moreover, the GI50 in the assay on UO-31 was 3.2 µM (inactive).
As for `Nc1ccc(C2NC(=O)Cc3c2ccc2ccccc32)cc1` (configuration not stated), the GI50 with HCC 2998 is 69 µM (inactive); in the assay with HCT-15, 84.1 µM; in the assay with HOP-92, > 100 µM (inactive); in the assay on HT-29, > 100 µM (inactive); with Hs-578T it was 46.5 µM (inactive); with IGROV-1, > 100 µM (inactive). For the same molecule, the GI50 in the assay with M14 was 89.9 µM (inactive); with MDA-N, 67.5 µM (inactive); with NCI-H522, > 100 µM (inactive); in the assay on OVCAR-3 it was 26.1 µM (inactive); in the assay on PC-3, 45.8 µM (inactive); in the assay on SF-295 it was 45.5 µM (inactive). Also, the GI50 with SK-MEL-2 was > 100 µM (inactive); in the assay on T47D, 34.1 µM (inactive); in the assay with TK-10 it was > 100 µM (inactive); with UACC-257, > 100 µM (inactive); in the assay with UACC-62 it was 66.1 µM (inactive); in the assay on UO-31, 32.1 µM (inactive).
Regarding `Cc1ccc(P(c2ccc(C)cc2)c2ccc(C)cc2)cc1`, the GI50 in the assay with HCC 2998 is 16.1 µM (inactive); in the assay on HCT-15, 20.2 µM; in the assay on HOP-92 it was 5.66 µM (inactive); in the assay with HT-29 it was 19.4 µM (inactive); in the assay with Hs-578T, 15.5 µM (inactive); with IGROV-1, 18.8 µM (inactive). Also, the GI50 with M14 was 19.3 µM (inactive); in the assay with MDA-N, 21.9 µM (inactive); with NCI-H522, 11.4 µM (inactive); in the assay with OVCAR-3, 15.7 µM (inactive); with PC-3, 30.6 µM (inactive); in the assay with SF-295 it was 21.4 µM (inactive). Further, the GI50 with SK-MEL-2 was 22.2 µM (inactive); in the assay on SN12C it was 17 µM (inactive); in the assay with T47D, 16.3 µM (inactive); with TK-10, 31 µM (inactive); in the assay on UACC-257 it was 22.1 µM (inactive); in the assay with UACC-62 it was 21.6 µM (inactive). Moreover, in the assay on UO-31, the GI50 was < 0.01 µM (active).
On to `CCOC(=O)c1c(N2CCCC2)[nH]c(=O)c(C(c2cccs2)c2c(O)c(C(=O)OCC)c(N3CCCC3)[nH]c2=O)c1O`, for which the GI50 in the assay on 786-0 is > 100 µM (inactive); with HCC 2998, > 100 µM (inactive); in the assay with HCT-15, above 100 µM; in the assay on HOP-92, > 100 µM (inactive); in the assay with HT-29 it was > 100 µM (inactive); in the assay with Hs-578T it was > 100 µM (inactive). For the same molecule, the GI50 with M14, with MDA-N, in the assay on NCI-H522, in the assay on OVCAR-3, in the assay with PC-3 and in the assay with SF-295 was > 100 µM (inactive) each time. Besides, the GI50 in the assay with SK-MEL-2, in the assay with SN12C, in the assay on T47D, with TK-10, with UACC-257 and in the assay with UACC-62 was > 100 µM (inactive) throughout. Also, the GI50 in the assay on UO-31 is > 100 µM (inactive).
